Experimental data published in patent US20210283163A1, “COMPOSITIONS AND METHODS FOR THE TREATMENT OF ACUTE AND CHRONIC PRURITIS” (Duke University, priority 2018, published 2021).

Columns and labels:
[1] = tested on: human DRG neurons; assay: Whole-cell patch clamp, inward currents in human DRG neurons; type: cell-based; details: A967079 10 μM
Method: Non-diseased human DRGs were obtained from donors through National Disease Research Interchange (NDRI) with permission of exemption from the Duke University Institutional Review Board (IRB). Postmortem L3-L5 DRGs were dissected from 4 donors and delivered in ice cold culture medium to the laboratory at Duke University within 24-72 hr of the donor's death. Upon the delivery, DRGs were rapidly dissected from nerve roots and minced in a calcium-free HBSS (GIBCO). Human DRG cultures were prepared as previously reported (Chang et al., Neurosci. Bull. 2018, 34, 4-12; Han et al., Neuron 2016, 92, 1279-1293). DRGs were digested at 37° C. in a humidified CO2 incubator for 120 min with collagenase Type II (Worthington, 290 units/mg, 12 mg/mL final concentration) and dispase II (Roche, 1 unit/mg, 20 mg/mL) in PBS with 10 mM HEPES, pH adjusted to 7.4 with NaOH. DRGs were mechanically dissociated using fire-polished pipettes, filtered through a 100 μm nylon mesh and centrifuged (500 g for 5 min). The pellet was resuspended, plated on 0.5 mg/mL poly-D-lysine-coated glass coverslips, and grown in Neurobasal medium supplemented with 10% FBS, 2% B-27 supplement, and 1% penicillin/streptomycin. Whole-cell patch-clamp recordings in small (<[…]) human DRG neurons were conducted at room temperature using patch pipettes with resistances of 3-4 MΩ.
Whole-Cell Patch Clamp Recordings in HEK293 Cells, CHO Cells, and DRG Neurons. Whole-cell patch clamp recordings were performed at room temperature using an Axopatch-200B amplifier (Axon Instruments) with a Digidata 1440B (Axon Instruments). In this study, we only examined small-diameter mouse DRG neurons (<25 μM) and small-diameter human DRG neurons (<55 μM). The patch pipettes were pulled from borosilicate capillaries (World Precision Instruments) using a P-97 Flaming/Brown micropipette puller (Sutter Instrument). Pipette resistance was 4-6 MΩ for whole-cell and outside-out recording. […]

[2] = tested on: mice; assay: Acute pruritus induced by intradermal pruritogens, effect of peptides; type: in vivo, mouse; details: peptide 2 mM
Method: (§1) Behavioral Assessment for Scratching (Itch) and Wiping (Pain). Mice were shaved on the cheek or nape after a brief anesthesia with isoflurane. Before experiments, mice were habituated in small plastic chambers (14×18×12 cm) daily for two days. The room temperature and humidity remained stable for all the experiments. […] After the injection, the number of scratches in 60 min was counted. A scratch was counted when a mouse lifted its hind paw to scratch the shaved region and returned the paw to the floor or to the mouth. A bout of wiping was defined as a continuous wiping movement with a forepaw directing at the area of the injection area (Shimada and LaMotte, Pain 2008, 139, 681-687). Scratching and wiping behavior was videoed for 30 min or 60 min using Sony HDR-CX610 camera. The video was subsequently played back offline and the numbers of scratches and wipes were quantified in a blinded manner.

[3] = tested on: mice; assay: Back model: intradermal nape injection, scratching; type: in vivo, mouse; details: 0.01-1 mM, 10 μL
Method: as §1

CCC(=N\O)/C(C)=C/c1ccc(F)cc1 [A967079, (1E,3E)-1-(4-Fluorophenyl)-2-methyl-1-pentene-3-one oxime]
block of miRNA-evoked inward currents in human DRG neurons [1]: blocked

NH2-FRNELAYPVLTFGQL-COOH (H-FRNELAYPVLTFGQL-OH) [blocking peptide]
effect on miR-711-induced pruritus ([2]; 15 μL intradermal, mmu-miR-711 1 mM, 10 μL): prevented | effect on acute itch induced by compound 48/80 ([2]; 15 μL, 48/80 50 μg/10 μL): no effect | effect on acute itch induced by chloroquine ([2]; 15 μL, CQ 100 μg/10 μL): no effect

miR-711: mmu-miR-711: gggacccggggagagauguaag (SEQ ID NO: 5) (GGGACCCGGGGAGAGAUGUAAG; chemistry not given here)
scratching after intradermal injection on the nape of neck [3]: dose-dependent scratching
